Results taken from paper PMC2535826, “Cross-Species Differential Plasma Protein Binding of MBX-102/JNJ39659100: A Novel PPAR-γ Agonist” (PPAR Research, 2008).
Where two headings read alike, the source gives them in different places.

How the values were obtained:
[1] = Plasma protein binding by equilibrium dialysis, rat plasma; format: in vitro ADME, Sprague Dawley rats; details: Sprague Dawley, equilibrium dialysis vs PBS, 37°C, read-out: %Protein Binding ± SD (converted)
Description: (§1) Radiolabeled MBX-102 acid was prepared as a 1 mL ethanol solution at a concentration of 50 μM (1 mCi total). […] Final solvent concentrations were 1% of the total volume. Plasma was stored at −20°C. Prior to use, it was thawed and spun at approximately 2000 rpm for 5 minutes to remove any precipitated material. The pH was adjusted to pH 7.4 by careful addition of NaH2PO4. A 1 mL sample of spiked plasma was prepared by direct dilution of [^3H]-MBX-102 acid stock solution into plasma and then added to one side of an equilibrium dialysis chamber. The other chamber was filled with 1 mL of 0.01 M phosphate buffered saline (PBS). The dialysis apparatus was placed in a water bath at 37°C and rotated at 20 rpm. […] Once equilibrium was established, the contents of the cell chambers were removed and analyzed by liquid scintillation counting. The chambers were sampled in triplicate. […] The recovery percentage was found not to vary with MBX-102 acid concentration.

[2] = Plasma protein binding by equilibrium dialysis, mouse plasma; format: in vitro ADME, CD-1 mice; details: equilibrium dialysis vs PBS, 37°C, read-out: %Protein Binding ± SD (converted)
Description: as §1

rat serum albumin = biological target: T1, rat serum albumin (Rattus norvegicus, UniProt P02770); assay: Albumin binding by surface plasmon resonance (SPR), RSA
T1 construct: purchased Sigma
Description: (§2) The characterization of the binding of MBX-102 acid against human, mouse, and rat albumin was performed using SPR-based biosensors (Biosensor Tools, Salt Lake City, Utah, USA). The assay methods used to assess the binding of MBX-102 acid to human, mouse, and rat albumins have been described previously. Briefly, each albumin was immobilized onto a CM5 sensor chip using standard amine coupling. Immobilization densities were between 10 000 and 13 000 RU. […] Each of the 16 different concentrations was tested in duplicate. […] All binding data were collected at 37°C. The binding response profile of MBX-102 acid over the three different albumin surfaces was evaluated and the binding constants for the high-affinity site were determined using a two-independent-site model. Conversion from KD to %bound was performed as previously described.

[3] = tested on: human alpha-1-acid glycoprotein; assay: Equilibrium dialysis binding to purified human alpha-1-acid glycoprotein; format: in vitro ADME; details: purified human alpha-1-acid glycoprotein 22.5 μM, data not shown
Description: Stock solutions of human serum albumin and alpha-1-acid glycoprotein were prepared in PBS buffer. […] The spiked protein solution (175 μL) was added to one side of an equilibrium dialysis chamber, and an equal volume of PBS buffer was added to the other chamber. Dialysis was allowed to reach equilibrium and the binding to protein was determined by liquid scintillation counting of samples from both chambers as described above.

Gal 4-Mouse PPAR-γ LBD = biological target: T2, Gal 4-Mouse PPAR-γ LBD (Mus musculus, UniProt P37238); assay: PPAR-γ reporter gene (transactivation) assay in HEK-293T cells with serum or serum proteins; format: cell-based
T2 construct: 5 μg Gal 4-Mouse PPAR-γ LBD; expressed in transfected cells; host or cells: HEK-293T
T2 sequence (P37238 238-503 limits assumed): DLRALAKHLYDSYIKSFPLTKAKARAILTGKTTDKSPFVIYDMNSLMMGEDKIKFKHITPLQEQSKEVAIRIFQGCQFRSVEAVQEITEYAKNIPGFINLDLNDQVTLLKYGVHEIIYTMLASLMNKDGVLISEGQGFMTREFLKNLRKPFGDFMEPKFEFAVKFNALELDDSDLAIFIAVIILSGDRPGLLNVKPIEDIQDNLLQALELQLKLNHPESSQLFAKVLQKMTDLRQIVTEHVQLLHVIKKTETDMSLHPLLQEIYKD
Description: All cells were maintained at 37°C in a humidified atmosphere of 8% CO2 in air.
For a pool sufficient to supply 100 wells, 6 million cells were diluted into medium for a total volume of 9 mL. The DNA-Lipofectamine 2000 mixture was prepared as per manufacturer’s instructions. For a pool sufficient to supply 100 wells, 5 μg Gal 4-Mouse PPAR-γ LBD, 5 μg pFR-Luciferase, and 500 ng Lac-z plasmids were mixed with 40 μL of Lipofectamine 2000 in Optimem medium in a total volume of 1 mL. The cell suspension was mixed with 1 mL of the DNA-Lipofectamine 2000 mixture. The mixture was plated into a 96-well plate and incubated for 4 hours at which time the transfection medium was removed and replaced with 100 μL DMEM, 10% (v/v) FBS and cultured overnight. The culture medium was then removed from the plates and replaced with 50 μL Pro293A medium. Compounds and charcoal stripped/delipidated serum or serum albumin, or alpha-1 acid glycoprotein stock solutions were prepared at 2X final concentration in Pro293A medium and mixed together prior to addition of 50 μL to the transfected cells and incubated for an additional 24 hours. Measurement of luciferase and fluorescence activity was performed according to the manufacturer’s instructions. Briefly, after removal of media, cells were incubated for 10 minutes in 100 μL of Steady-Glo reagent. An 80 μL lysate aliquot was transferred to opaque white well plates and the luminescence measured. The 80 μL aliquot was then transferred back to the original plate. […] Each experimental condition was assessed in quadruplicate. The data were normalized for each well by dividing the luminescence measurement by the fluorescence measurement. Dose-response curves were generated and EC50 values were calculated using Prism Graphpad version 5.1.

human serum albumin = biological target: T3, human serum albumin (Homo sapiens, UniProt P02768); assay: Albumin binding by surface plasmon resonance (SPR), HSA; details: for %Bound: converted from KD
T3 construct: purchased Sigma
Description: as §2

T1 sequence (P02770 25-608): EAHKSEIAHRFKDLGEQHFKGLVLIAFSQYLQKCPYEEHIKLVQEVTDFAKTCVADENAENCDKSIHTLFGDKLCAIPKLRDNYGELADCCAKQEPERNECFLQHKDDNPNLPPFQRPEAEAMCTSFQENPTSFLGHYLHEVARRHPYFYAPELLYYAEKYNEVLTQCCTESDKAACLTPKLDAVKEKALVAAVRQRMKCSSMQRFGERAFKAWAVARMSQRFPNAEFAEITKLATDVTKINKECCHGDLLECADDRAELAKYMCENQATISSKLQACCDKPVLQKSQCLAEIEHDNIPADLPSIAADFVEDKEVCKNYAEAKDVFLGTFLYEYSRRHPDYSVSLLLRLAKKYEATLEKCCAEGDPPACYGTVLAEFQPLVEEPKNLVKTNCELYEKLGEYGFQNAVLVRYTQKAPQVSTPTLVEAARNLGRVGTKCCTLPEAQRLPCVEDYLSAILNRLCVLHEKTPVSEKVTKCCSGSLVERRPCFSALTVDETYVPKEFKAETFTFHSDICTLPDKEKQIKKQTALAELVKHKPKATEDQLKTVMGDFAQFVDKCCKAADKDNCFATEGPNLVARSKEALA
T3 sequence (P02768 25-609): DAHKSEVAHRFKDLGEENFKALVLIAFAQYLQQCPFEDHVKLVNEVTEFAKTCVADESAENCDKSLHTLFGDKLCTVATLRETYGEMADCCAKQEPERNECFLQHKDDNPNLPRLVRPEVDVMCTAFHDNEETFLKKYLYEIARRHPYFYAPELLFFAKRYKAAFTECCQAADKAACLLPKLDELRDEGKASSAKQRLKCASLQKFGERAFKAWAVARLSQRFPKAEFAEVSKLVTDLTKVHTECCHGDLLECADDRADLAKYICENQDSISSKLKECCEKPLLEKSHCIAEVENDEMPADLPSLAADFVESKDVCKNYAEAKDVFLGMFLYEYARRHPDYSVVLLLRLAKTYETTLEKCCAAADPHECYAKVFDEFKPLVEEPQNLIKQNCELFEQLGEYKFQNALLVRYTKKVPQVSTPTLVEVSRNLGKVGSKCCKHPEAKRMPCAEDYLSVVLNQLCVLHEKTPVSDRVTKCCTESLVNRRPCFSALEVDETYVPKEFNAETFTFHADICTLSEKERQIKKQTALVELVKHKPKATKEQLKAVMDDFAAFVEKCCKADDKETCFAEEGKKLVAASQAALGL

O=C(O)[C@H](Oc1cccc(C(F)(F)F)c1)c1ccc(Cl)cc1 (stereo in doubt) [MBX-102 acid]
fraction unbound at 1000 µM ([1]; pH 7.4, MBX-102 acid 1000 μM): 0.003 | fraction unbound at 1500 µM ([1]; pH 7.4, MBX-102 acid 1500 μM): 0.002 | fraction unbound at 2000 µM ([1]; pH 7.4, MBX-102 acid 2000 μM): 0.005 | fraction unbound at 400 µM ([2]; CD-1, pH 7.4, MBX-102 acid 400 μM): 0.002 | fraction unbound at 600 µM ([2]; CD-1, pH 7.4, MBX-102 acid 600 μM): 0.003 | fraction unbound at 1000 µM ([2]; CD-1, pH 7.4, MBX-102 acid 1000 μM): 0.005 | fraction unbound at 1500 µM ([2]; CD-1, pH 7.4, MBX-102 acid 1500 μM): 0.002 | fraction unbound at 2000 µM ([2]; CD-1, pH 7.4, MBX-102 acid 2000 μM): 0.005 | %Bound (rat serum albumin; RSA, converted from KD): 98.1% | Kd (rat serum albumin; RSA, high-affinity site, two-independent-site model, 37°C, pH 7.4): 12.8 µM | fraction unbound (rat serum albumin; rat, rat serum albumin immobilized on a CM5 sensor chip, pH 7.4, RSA, converted from KD, read-out: %Bound): < 0.02 | binding to human alpha 1-acid glycoprotein [3]: < 5% | EC50 (Gal 4-Mouse PPAR-γ LBD; 0% human serum albumin (Figure 3), 2–6 experiments, mean ± SD, read-out: EC50 PPAR-γ activation): 14.4 ± 2.5 µM | EC50 (Gal 4-Mouse PPAR-γ LBD; 0% serum (Figure 2), 3 experiments, mean ± SD, read-out: EC50 PPAR-γ activation): 15.1 ± 1.9 µM | EC50 (Gal 4-Mouse PPAR-γ LBD; 0.08% human serum albumin (Figure 3), 2–6 experiments, mean ± SD, read-out: EC50 PPAR-γ activation): 44 ± 5.6 µM | EC50 (Gal 4-Mouse PPAR-γ LBD; 2% (v/v) human serum (Figure 2), 3 experiments, mean ± SD, read-out: EC50 PPAR-γ activation): 43.5 ± 6.9 µM | fold change in mean EC50 relative to no serum (Gal 4-Mouse PPAR-γ LBD; 2% human serum): 3 fold | EC50 (Gal 4-Mouse PPAR-γ LBD; 10% (v/v) human serum (Figure 2), 3 experiments, mean ± SD, read-out: EC50 PPAR-γ activation): 288 ± 39.6 µM | fold change in mean EC50 relative to no serum (Gal 4-Mouse PPAR-γ LBD; 10% human serum): 19 fold | EC50 (Gal 4-Mouse PPAR-γ LBD; 10% human serum (Table 4, Figure 4), 3 experiments, read-out: Mean EC50 ± SD, Human): 260 ± 16.9 µM | EC50 (Gal 4-Mouse PPAR-γ LBD; 10% mouse serum (Table 4, Figure 4), 3 experiments, read-out: Mean EC50 ± SD, Mouse): 170 µM | EC50 (Gal 4-Mouse PPAR-γ LBD; 10% rat serum (Table 4, Figure 4), 3 experiments, read-out: Mean EC50 ± SD, Rat): 196 ± 18 µM | EC50 (Gal 4-Mouse PPAR-γ LBD; 20% (v/v) human serum (Figure 2), 3 experiments, mean ± SD, read-out: EC50 PPAR-γ activation): 442 ± 29.8 µM | fold change in mean EC50 relative to no serum (Gal 4-Mouse PPAR-γ LBD; 20% human serum): 29 fold | %Bound (human serum albumin): > 98% | %Bound (human serum albumin; listed as MBX-102): 99.1% | Kd (human serum albumin; high-affinity site, two-independent-site model, 37°C, pH 7.4): 5.8 µM
